Measured values reported in patent US11166924B2, “N-methyl-d-aspartate receptor allosteric modulators and methods for their use” (Qingdao Primedicine Pharmaceutical Company, Ltd., priority 2016, dated 2021).

Test system: CREB phosphorylation (pCREB) on Serine 133
Experiment: pCREB levels in hippocampal slices
Set-up: species or system rat
Conditions: 10 μM; 30 min exposure; FIG. 21
Method: Male Sprague Dawley rats 4-8 weeks old (125-200 gm) were decapitated, and their brains were dissected rapidly and placed into ice-cold chopping saline [containing (in mM): 110 sucrose, 60 NaCl, 3 KCl, 1.25 NaH2PO4, 28 NaHCO3, 5 D-glucose, 0.5 CaCl2, 7 MgCl2, and 0.6 ascorbate, saturated with 95% O2/5% CO2]. Then 400 μm transverse slices were prepared with a Vibratome Series 1000 (Pelco, Ted Pella, Redding, Calif.). Slices were transferred immediately into a 1:1 mix of chopping saline and normal ACSF [containing (in mM): 125 NaCl, 2.5 KCl, 1.25 NaH2PO4, 25 NaHCO3, 10 D-glucose, 2 CaCl2, and 1 MgCl2, saturated with 95% O2/5% CO2] and maintained at room temperature for at least 90 min. Then the slices were transferred to ACSF at 32° C. in a submersion chamber for 45-60 min before pharmacological stimulation.
Brain tissues or cultured cells were lysed on ice in the lysis buffer and then the solution was centrifuged at 14,000 rpm for 10 min at 4° C. Next, the supernatant was collected and protein concentrations were determined using a BCA protein assay kit (Thermo Scientific, 23227). […] The band density of each protein was quantified by the Bio-Rad Quantity One software and the relative optical density was analyzed relative to loading total-CREB on the same membrane. […]

CCOc1cc(Cl)c(Cl)c(/C=N/NC(=O)c2ccccc2Br)c1O [Npam43, (E)-2-bromo-N′-(2,3-dichloro-5-ethoxy-6-hydroxybenzylidene)benzohydrazide]
pCREB levels in hippocampal slices: significantly enhanced pCREB levels
